Tested on: Bacillus cereus spores
Experiment: Rate of Kill Antimicrobial Efficacy (SOP CB021-04), Formulas 1-8 with octanoic/peroctanoic acid, 40° C.
Assay type: cell-based
Details: on a weight basis
Procedure: Ecolab Microbiological Services SOP CB021-04; Rate of Kill Antimicrobial Efficacy. Following exposure to the formula and subsequent neutralization, spores were heat shocked for 13 minutes at 80° C. before plating. [table]

In the case of `CCCCCCCC(=O)OO` [peroctanoic acid, peroxyoctanoic acid], the “effect on the sporicidal efficacy of 150 ppm POAA against B. cereus, compared with octanoic acid” value was “greater effect”.

— patent US7056536B2, “Non-corrosive sterilant composition” (Ecolab Inc., priority 1998, dated 2006)
